Laboratory results reported in article PMC10287183 (Antiviral Research, 2023).

Assays:
[1] = system: CatB and CatL; experiment: Z-Phe-Arg-AMC substrate degradation in whole cell lysates with CA-074; assay type: biochemical; settings: CA-074 10 μM
[2] = system: SARS-CoV-2 Omicron; experiment: microbe, parasite or virus in culture; assay type: cell-based; settings: Severe acute respiratory syndrome coronavirus 2, read-out: EC90 (mean ± SD)
[3] = in vitro; settings: human
[4] = in vitro; settings: human; remark: listed apart in the source

SMILES | Z-Phe-Arg-AMC substrate degradation ([1]; Calu-3 whole cell lysate) | Z-Phe-Arg-AMC substrate degradation ([1]; Huh7-hACE2 whole cell lysate) | Z-Phe-Arg-AMC substrate degradation ([1]; Vero E6 whole cell lysate) | EC90 [2] | CC50 [3] | CC50 [4]
CCCNC(=O)[C@H]1O[C@@H]1C(=O)N[C@H](C(=O)N1CCC[C@H]1C(=O)O)[C@@H](C)CC [CA-074] | almost completely abolished | almost completely abolished | did not reduce substrate degradation | – | – | –
CCN(CCO)CCCC(C)Nc1ccnc2cc(Cl)ccc12 (stereo not shown) [Hydroxychloroquin, Hydroxychloroquine] | – | – | – | 7.7 ± 1.2 µM | – | –
O=[N+]([O-])c1ccc(O)c2ncccc12 [Nitroxoline, nitroxoline] | – | – | – | 6.4 ± 0.6 µM | > 100 µM | > 100 µM
